# Assay results reported in US20080095822A1, “Active Substance Delivery System Comprising A Hydrogel Atrix And Microcarriers” (UNIVERSITE DE LIEGE, priority 2004, published 2008).
# Test: release of LNG from PHEMA hydrogel matrix into purified water (HPLC-UV)
# Type: physicochemical
# Settings: LNG directly in matrix, after 10 days, purified water 37° C.
smiles,measurement,value
"C#C[C@]1(O)CC[C@H]2[C@@H]3CCC4=CC(=O)CC[C@@H]4[C@H]3CC[C@@]21CC [LNG, levonorgestrel]",release rate after stabilisation,around 10 μg/day
